Patent publication US20140127158A1, “COMBINATION THERAPY FOR HEPATITIS C VIRUS INFECTION” (National Health Research Institute, priority 2012, published 2014)
Where two headings read alike, the source gives them in different places.

Columns and labels:
Assay type in all cases: cell-based, Hepatitis C virus
[1] = test system: genotype 1b HCV replicon with NS5A amino acid substitutions; assay: Transient replicon assay, genotype 1b NS5A amino acid substitutions; conditions: for EC50 / EC90: Hepatitis C virus
[2] = test system: HCV1b reporter replicon pRS-Luc-HCV1bRep; assay: Transient HCV1b reporter replicon time course (viral translation vs RNA synthesis)
Method: (8) RNA transcription and transient replicon assay. The RNA transcripts were synthesized in vitro using ScaI-digested DNAs and the T7 MegaScript transcription kit (Ambion) according to the manufacturer's directions. A transient replicon assay was performed to quantify the compound-mediated inhibition of viral translation (Dears et al., J Virol 79:4599-609 (2005)). RNA transcripts were transfected into Huh-7.5 cells by electroporation, as described previously. See, e.g., Blight et al., J Virol 76:13001-14 (2002). A specific concentration of DBPR110 or the control medium was added to each well, and the cells were assayed to determine the luciferase activity at 4 h and 72 h post-transfection. […] For quantification of the compound-mediated inhibition, the relative luciferase activity derived from the mock-treated cells was set to 100% (Zou et al., Virology 384:242-52 (2009)).
To distinguish inhibition of viral translation from inhibition of RNA synthesis, the reduction rate of reporter gene expression level was monitored as an indicator of the inhibitory activity of DBPR110. […] The luciferase activity was monitored several times over a period of 72 hours posttransfection. […] The luciferase activity was measured at 4, 8, 24, 48, and 72 hours posttransfection.

HCV1b replicon = assay: Serum shift assay; conditions: for EC90 / EC50: Hepatitis C virus; for EC50: read-out: E50
Method: (9) Serum shift assay. In the serum shift assay, the inhibitory activity of DBPR110 was determined using replicon 1b in the presence of 10, 20, 30, 40 or 50% fetal bovine serum, or 10 or 40% of extracellular normal human serum.

[3] = genotype 1b NS5A V153M + M202L + M265V
[4] = genotype 1b NS5A Y93H + V153M + M202L + M265V
[5] = genotype 1b NS5A Y93N + V153M + M202L + M265V

O=C(N[C@@H](C(=O)N1CCC[C@H]1c1ncc(-c2ccc(-c3ccc(-c4cnc([C@@H]5CCCN5C(=O)[C@H](NC(=O)C5CC5)c5ccccc5)s4)cc3)cc2)s1)c1ccccc1)C1CC1 [DBPR110]
EC50 ([1]; genotype 1b NS5A M202L): 0.0021 ± 0.0006 nM | EC90 ([1]; genotype 1b NS5A M202L): 0.005 ± 0.0014 nM | EC50 ([1]; genotype 1b NS5A M265V): 0.002 ± 0.0009 nM | EC90 ([1]; genotype 1b NS5A M265V): 0.0051 ± 0.0017 nM | EC50 ([1]; genotype 1b NS5A P58L): 0.564 ± 0.194 nM | EC90 ([1]; genotype 1b NS5A P58L): 2.73 ± 0.909 nM | EC50 ([1]; genotype 1b NS5A P58S): 0.038 ± 0.014 nM | EC90 ([1]; genotype 1b NS5A P58S): 0.064 ± 0.011 nM | EC50 ([1]; genotype 1b NS5A P58T): 0.243 ± 0.04 nM | EC90 ([1]; genotype 1b NS5A P58T): 1.3 ± 0.219 nM | EC50 ([1]; genotype 1b NS5A Parental): 0.0015 ± 0.0006 nM | EC90 ([1]; genotype 1b NS5A Parental): 0.0042 ± 0.0021 nM | EC50 ([1]; genotype 1b NS5A V153M): 0.0013 ± 0.0005 nM | EC90 ([1]; genotype 1b NS5A V153M): 0.0041 ± 0.0019 nM | EC50 [1, 3]: 0.0011 ± 0.0005 nM | EC90 [1, 3]: 0.0031 ± 0.0011 nM | EC50 ([1]; genotype 1b NS5A Y93C): 0.078 ± 0.04 nM | EC90 ([1]; genotype 1b NS5A Y93C): 0.177 ± 0.062 nM | EC50 ([1]; genotype 1b NS5A Y93H): 1.41 nM | EC90 ([1]; genotype 1b NS5A Y93H): 7.34 nM | EC50 [1, 4]: 8.74 nM | EC90 [1, 4]: 37.7 nM | EC50 ([1]; genotype 1b NS5A Y93N): 3.82 nM | EC90 ([1]; genotype 1b NS5A Y93N): 13.3 nM | EC50 [1, 5]: 27.3 nM | EC90 [1, 5]: 98.9 nM | Fold resistance (EC50) ([1]; genotype 1b NS5A M202L): 1 fold | Fold resistance (EC90) ([1]; genotype 1b NS5A M202L): 1 fold | Fold resistance (EC50) ([1]; genotype 1b NS5A M265V): 1 fold | Fold resistance (EC90) ([1]; genotype 1b NS5A M265V): 1 fold | Fold resistance (EC50) ([1]; genotype 1b NS5A P58L): 376 fold | Fold resistance (EC90) ([1]; genotype 1b NS5A P58L): 650 fold | Fold resistance (EC50) ([1]; genotype 1b NS5A P58S): 25 fold | Fold resistance (EC90) ([1]; genotype 1b NS5A P58S): 15 fold | Fold resistance (EC50) ([1]; genotype 1b NS5A P58T): 162 fold | Fold resistance (EC90) ([1]; genotype 1b NS5A P58T): 310 fold | Fold resistance (EC50) ([1]; genotype 1b NS5A Parental): 1 fold | Fold resistance (EC90) ([1]; genotype 1b NS5A Parental): 1 fold | Fold resistance (EC50) ([1]; genotype 1b NS5A V153M): 1 fold | Fold resistance (EC90) ([1]; genotype 1b NS5A V153M): 1 fold | Fold resistance (EC50) [1, 3]: 1 fold | Fold resistance (EC90) [1, 3]: 1 fold | Fold resistance (EC50) ([1]; genotype 1b NS5A Y93C): 52 fold | Fold resistance (EC90) ([1]; genotype 1b NS5A Y93C): 42 fold | Fold resistance (EC50) ([1]; genotype 1b NS5A Y93H): 939 fold | Fold resistance (EC90) ([1]; genotype 1b NS5A Y93H): 1,747 fold | Fold resistance (EC50) [1, 4]: 5,824 fold | Fold resistance (EC90) [1, 4]: 8,979 fold | Fold resistance (EC50) ([1]; genotype 1b NS5A Y93N): 2,547 fold | Fold resistance (EC90) ([1]; genotype 1b NS5A Y93N): 3,168 fold | Fold resistance (EC90) [1, 5]: 23,550 fold | effect on the Rluc signals ([2]; 4 and 8 hours posttransfection (viral translation)): minimal effect | effect on the Rluc signals ([2]; 24, 48, and 72 hours posttransfection (RNA replication), P<0.001): significantly reduced | Shift fold (EC50) (HCV1b replicon; 10% FBS): 1.0 fold | Shift fold (EC90) (HCV1b replicon; 10% FBS): 1.0 fold | Shift fold (EC50) (HCV1b replicon; 10% NHS (normal human serum)): 1.0 fold | Shift fold (EC90) (HCV1b replicon; 10% NHS (normal human serum)): 1.0 fold | Shift fold (EC50) (HCV1b replicon; 20% FBS): 1.9 fold | Shift fold (EC90) (HCV1b replicon; 20% FBS): 2.6 fold | Shift fold (EC50) (HCV1b replicon; 30% FBS): 1.8 fold | Shift fold (EC90) (HCV1b replicon; 30% FBS): 2.3 fold | Shift fold (EC50) (HCV1b replicon; 40% FBS): 3.1 fold | Shift fold (EC90) (HCV1b replicon; 40% FBS): 3.8 fold | Shift fold (EC50) (HCV1b replicon; 40% NHS (normal human serum)): 6.3 fold | Shift fold (EC90) (HCV1b replicon; 40% NHS (normal human serum)): 14.1 fold | Shift fold (EC50) (HCV1b replicon; 50% FBS): 5.0 fold | Shift fold (EC90) (HCV1b replicon; 50% FBS): 4.5 fold | EC90 (HCV1b replicon; 10% FBS): 0.0093 ± 0.0034 nM | EC50 (HCV1b replicon; 10% FBS): 0.0043 ± 0.0008 nM | EC90 (HCV1b replicon; 10% NHS (normal human serum)): 0.0416 ± 0.0013 nM | EC50 (HCV1b replicon; 10% NHS (normal human serum)): 0.0335 ± 0.0004 nM | EC90 (HCV1b replicon; 20% FBS): 0.0238 ± 0.011 nM | EC50 (HCV1b replicon; 20% FBS): 0.0081 ± 0.0016 nM | EC90 (HCV1b replicon; 30% FBS): 0.0216 ± 0.017 nM | EC50 (HCV1b replicon; 30% FBS): 0.0079 ± 0.0009 nM | EC90 (HCV1b replicon; 40% FBS): 0.0351 ± 0.0074 nM | EC50 (HCV1b replicon; 40% FBS): 0.0132 ± 0.0017 nM | EC90 (HCV1b replicon; 40% NHS (normal human serum)): 0.588 ± 0.0459 nM | EC50 (HCV1b replicon; 40% NHS (normal human serum)): 0.211 ± 0.0063 nM | EC90 (HCV1b replicon; 50% FBS): 0.0419 ± 0.0072 nM | EC50 (HCV1b replicon; 50% FBS): 0.0215 ± 0.01 nM
